Article PMC4256409, “Role of Phenylalanine and Valine^10 Residues in the Antimicrobial Activity and Cytotoxicity of Piscidin-1” (PLoS ONE, 2014)
Where no end group is shown, it is not given here.

Assays:
MRSA CCARM 3108 = type: cell-based, Methicillin-resistant S. aureus; details: MRSA CCARM 3108; broth microdilution, 37°C, 16 h; three independent experiments in triplicate, SD 14.0%
Text: (§1) Escherichia coli KCTC 1682, E. coli KCTC 2593, E. coli KCTC 2571, Salmonella typhimurium KCTC 1926, Pseudomonas aeruginosa KCTC 1637, P. aeruginosa KCTC 2004, P. aeruginosa KCTC 2513, Bacillus subtilis KCTC 3068, B. subtilis KCTC 1021, B. subtilis KCTC 1022, Staphylococcus epidermidis KCTC 1917, Staphylococcus aureus KCTC 1621, S. aureus KCTC 1916, and S. aureus KCTC 3881 were purchased from the Korean Collection for Type Cultures, Korea Research Institute of Bioscience & Biotechnology (Taejon, Korea). Methicillin-resistant S. aureus (MRSA) (CCARM 3089, CCARM 3090, CCARM 3108, CCARM 3114, and CCARM 3126), multidrug-resistant E. coli (MDREC) (CCARM 1229 and CCARM 1238), multidrug-resistant S. typhimurium (MDRST) (CCARM 8003, CCARM 8007, and CCARM 8009), multidrug-resistant Acinetobacter baumanii (MDRAB) (CCARM 12005, CCARM 12035, CCARM 12036, CCARM 12037), and multidrug-resistant P. aeruginosa (MDRPA) (CCARM 2002, CCARM 2003, CCARM 2095, and CCARM 2163) were obtained from the Culture Collection of Antibiotic-Resistant Microbes (CCARM) at Seoul Women’s University in Korea. The antimicrobial activities of the peptides against selected organisms, including three Gram-positive, three Gram-negative, and five antibiotic-resistant bacteria, were determined using a broth microdilution assay. Briefly, single colonies of bacteria and fungi were inoculated into Luria-Bertani (LB) medium and cultured overnight at 37°C. An aliquot of the culture was transferred to 10 mL of fresh LB and incubated for an additional 3–5 h at 37°C until it reached the mid-logarithmic phase. Two-fold serial dilutions of the peptides in 1% peptone were prepared. The serial dilutions (100 µL) were added to 100 µL of cells (2×10^6 colony-forming units (CFU)/mL) in 96-well microtiter plates and incubated at 37°C for 16 h. […] MIC values were calculated as the average of triplicate measurements from three independent assays.

B. subtilis KCTC3068 = type: cell-based, Bacillus subtilis; details: B. subtilis KCTC3068; broth microdilution, 37°C, 16 h; three independent experiments in triplicate, SD 14.0%
Experimental: (§2) The antimicrobial activities of the peptides against selected organisms, including three Gram-positive, three Gram-negative, and five antibiotic-resistant bacteria, were determined using a broth microdilution assay. Briefly, single colonies of bacteria and fungi were inoculated into Luria-Bertani (LB) medium and cultured overnight at 37°C. An aliquot of the culture was transferred to 10 mL of fresh LB and incubated for an additional 3–5 h at 37°C until it reached the mid-logarithmic phase. Two-fold serial dilutions of the peptides in 1% peptone were prepared. The serial dilutions (100 µL) were added to 100 µL of cells (2×10^6 colony-forming units (CFU)/mL) in 96-well microtiter plates and incubated at 37°C for 16 h. […] MIC values were calculated as the average of triplicate measurements from three independent assays.

MDREC CCARM 1238 = type: cell-based, multidrug-resistant E. coli; details: broth microdilution, 37°C, 16 h, three independent experiments in triplicate, SD 14.0%
Experimental: as §2

MDRST CCARM 8009 = type: cell-based, multidrug-resistant S. typhimurium; details: broth microdilution, 37°C, 16 h, three independent experiments in triplicate, SD 14.0%
Text: as §1

P. aeruginosa KCTC1637 = type: cell-based, Pseudomonas aeruginosa; details: P. aeruginosa KCTC1637; broth microdilution, 37°C, 16 h; three independent experiments in triplicate, SD 14.0%
Experimental: as §2

S. aureus KCTC1916 = type: cell-based, Staphylococcus aureus; details: S. aureus KCTC1916; broth microdilution, 37°C, 16 h; three independent experiments in triplicate, SD 14.0%
Experimental: as §2

MDRAB CCARM 12036 = type: cell-based, multidrug-resistant Acinetobacter baumanii; details: broth microdilution, 37°C, 16 h, three independent experiments in triplicate, SD 14.0%
Experimental: as §2

MRSA CCARM 3126 = type: cell-based, Methicillin-resistant S. aureus; details: MRSA CCARM 3126; broth microdilution, 37°C, 16 h; three independent experiments in triplicate, SD 14.0%
Text: as §1

MDRPA CCARM 2095 = type: cell-based, multidrug-resistant P. aeruginosa; details: broth microdilution, 37°C, 16 h, three independent experiments in triplicate, SD 14.0%
Experimental: as §2

MDRST CCARM 8007 = type: cell-based, multidrug-resistant S. typhimurium; details: broth microdilution, 37°C, 16 h, three independent experiments in triplicate, SD 14.0%
Text: as §1

B. subtilis KCTC1021 = type: cell-based, Bacillus subtilis; details: B. subtilis KCTC1021; broth microdilution, 37°C, 16 h; three independent experiments in triplicate, SD 14.0%
Experimental: as §2

MDRAB CCARM 12005 = type: cell-based, multidrug-resistant Acinetobacter baumanii; details: broth microdilution, 37°C, 16 h, three independent experiments in triplicate, SD 14.0%
Experimental: as §2

P. aeruginosa KCTC2513 = type: cell-based, Pseudomonas aeruginosa; details: P. aeruginosa KCTC2513; broth microdilution, 37°C, 16 h; three independent experiments in triplicate, SD 14.0%
Experimental: as §2

MRSA CCARM 3114 = type: cell-based, Methicillin-resistant S. aureus; details: MRSA CCARM 3114; broth microdilution, 37°C, 16 h; three independent experiments in triplicate, SD 14.0%
Text: as §1

E.coli KCTC2571 = type: cell-based, Escherichia coli; details: E.coli KCTC2571; broth microdilution, 37°C, 16 h; three independent experiments in triplicate, SD 14.0%
Experimental: as §2

MDREC CCARM 1229 = type: cell-based, multidrug-resistant E. coli; details: broth microdilution, 37°C, 16 h, three independent experiments in triplicate, SD 14.0%
Experimental: as §2

MDRPA CCARM 2002 = type: cell-based, multidrug-resistant P. aeruginosa; details: broth microdilution, 37°C, 16 h, three independent experiments in triplicate, SD 14.0%
Experimental: as §2

MDRPA CCARM 2003 = type: cell-based, multidrug-resistant P. aeruginosa; details: broth microdilution, 37°C, 16 h, three independent experiments in triplicate, SD 14.0%
Experimental: as §2

P. aeruginosa KCTC2004 = type: cell-based, Pseudomonas aeruginosa; details: P. aeruginosa KCTC2004; broth microdilution, 37°C, 16 h; three independent experiments in triplicate, SD 14.0%
Experimental: as §2

S. aureus KCTC3881 = type: cell-based, Staphylococcus aureus; details: S. aureus KCTC3881; broth microdilution, 37°C, 16 h; three independent experiments in triplicate, SD 14.0%
Text: as §1

MDRPA CCARM 2163 = type: cell-based, multidrug-resistant P. aeruginosa; details: broth microdilution, 37°C, 16 h, three independent experiments in triplicate, SD 14.0%
Experimental: as §2

MRSA CCARM3089 = type: cell-based, Methicillin-resistant S. aureus; details: MRSA CCARM3089; broth microdilution, 37°C, 16 h; three independent experiments in triplicate, SD 14.0%
Text: as §1

MRSA CCARM 3090 = type: cell-based, Methicillin-resistant S. aureus; details: MRSA CCARM 3090; broth microdilution, 37°C, 16 h; three independent experiments in triplicate, SD 14.0%
Text: as §1

MDRST CCARM 8003 = type: cell-based, multidrug-resistant S. typhimurium; details: broth microdilution, 37°C, 16 h, three independent experiments in triplicate, SD 14.0%
Text: as §1

S. typhimurium KCTC1926 = type: cell-based, Salmonella typhimurium; details: S. typhimurium KCTC1926; broth microdilution, 37°C, 16 h; three independent experiments in triplicate, SD 14.0%
Experimental: as §2

B. subtilis KCTC1022 = type: cell-based, Bacillus subtilis; details: B. subtilis KCTC1022; broth microdilution, 37°C, 16 h; three independent experiments in triplicate, SD 14.0%
Experimental: as §2

MDRAB CCARM 12037 = type: cell-based, multidrug-resistant Acinetobacter baumanii; details: broth microdilution, 37°C, 16 h, three independent experiments in triplicate, SD 14.0%
Experimental: as §2

E. coli KCTC2593 = type: cell-based, Escherichia coli; details: E. coli KCTC2593; broth microdilution, 37°C, 16 h; three independent experiments in triplicate, SD 14.0%
Text: as §1

S. epidermidis KCTC1917 = type: cell-based, Staphylococcus epidermidis; details: S. epidermidis KCTC1917; broth microdilution, 37°C, 16 h; three independent experiments in triplicate, SD 14.0%
Experimental: as §2

[1] = test system: Standard bacterial strains; type: cell-based; details: average over the 14 standard bacterial strains of Table 2

FFHHIFRGIVHVGKTIHRLVTG [Pis-1, reference compound]
MIC (MRSA CCARM 3108): 4.0 µM | MIC (B. subtilis KCTC3068): 1.0 µM | MIC (MDREC CCARM 1238): 4.0 µM | MIC (MDRST CCARM 8009): 4.0 µM | MIC (P. aeruginosa KCTC1637): 2.0 µM | MIC (S. aureus KCTC1916): 1.0 µM | MIC (MDRAB CCARM 12036): 2.0 µM | MIC (MRSA CCARM 3126): 4.0 µM | MIC (MDRPA CCARM 2095): 2.0 µM | MIC (MDRST CCARM 8007): 4.0 µM | MIC (B. subtilis KCTC1021): 2.0 µM | MIC (MDRAB CCARM 12005): 2.0 µM | MIC (P. aeruginosa KCTC2513): 2.0 µM | MIC (MRSA CCARM 3114): 4.0 µM | MIC (E.coli KCTC2571): 1.0 µM | MIC (MDREC CCARM 1229): 4.0 µM | MIC (MDRPA CCARM 2002): 2.0 µM | MIC (MDRPA CCARM 2003): 2.0 µM | MIC (P. aeruginosa KCTC2004): 2.0 µM | MIC (S. aureus KCTC3881): 2.0 µM | MIC (MDRPA CCARM 2163): 2.0 µM | MIC (MRSA CCARM3089): 8.0 µM | MIC (MRSA CCARM 3090): 8.0 µM | MIC (MDRST CCARM 8003): 4.0 µM | MIC (S. typhimurium KCTC1926): 2.0 µM | MIC (B. subtilis KCTC1022): 1.0 µM | MIC (MDRAB CCARM 12037): 2.0 µM | MIC (E. coli KCTC2593): 1.0 µM | MIC (S. epidermidis KCTC1917): 2.0 µM | Average MIC [1]: 1.5 µM
